How the values were obtained:
in vivo = conditions: mouse, mice, intravenous route, calculated by method of Miller and Tainter, read-out: LD50 /24 hrs/kg body weight
[1] = tested on: carrageenin-induced edema; test: Localized carrageenin-induced edema method (anti-inflammatory action); type: in vivo; conditions: rats, oral 100 mg/kg given 1 h before, simultaneously with, and 1 h and 2.5 h after carrageenin
Description: (a) Localized carrageenin-induced edema method
A 1% carrageenin solution (1 ml) is injected in the metatarsal flexor muscles of the right hind limb of rats at time 0. The animals of the treated group are additionally administered orally 100 mg/kg of the test derivative, respectively 1 hour prior to and then simultaneously with the phlogogenic agent, and then one hour and 2.5 hours thereafter. The percent anti-inflammatory activity, as a function of time, is determined by measurements effected with a ROCH micrometer at times 0, 1 hour, 2 hours, 3 hours and 5 hours after carrageenin administration.

[2] = tested on: ovalbumin-induced systemic edema; test: Ovalbumin-induced systemic edema method (anti-inflammatory action); type: in vivo; conditions: rats, oral 100 mg/kg given 1 h before and simultaneously with ovalbumin
Description: (b) Ovalbumin-induced systemic edema method
Rats are administered a simultaneous intraperitoneal injection of 1 ml ovalbumin and 0.5 ml of a 1% aqueous Evans Blue solution. The animals of the treated group are additionally administered orally 100 mg/kg of the test derivative, one hour prior to ovalbumin administration and simultaneously with said ovalbumin administration. The intensity of the phenomenon thus induced is scored according to a scale from 1 to 5, according to the progress of the inflammatory syndrome. The determinations are effected after 2 hours and after 3 hours. Thus are determined the mean intensity of the edema and the percent decrease of the edema reaction.

blood plate aggregation = test: Inhibiting activity on blood plate aggregation (adenosine diphosphate-induced, turbidimetric assay on plasma of treated rats); type: in vivo; conditions: Rattus norvegicus, rats administered 100 mg/kg, read-out: percent inhibition on blood plate aggregation
Description: 2. Inhibiting activity on blood plate aggregation
Rat plasma, prepared to contain 600,000±20,000 blood platelets per mm^3 is normally cloudy. Addition of adenosine diphosphate induces blood plate aggregation and, thus, an increase of the light transmission, a phenomenon readily measurable with a spectrophotometer. When the same test is effected with a plasma prepared from the blood of an animal which has been administered 100 mg/kg of a derivative having an inhibiting effect on blood plate aggregation, there is no aggregation of the blood plates and the serum remains cloudy. The turbidimetric assay effected with a spectrophotometer provides a measure of the inhibiting activity on blood plate aggregation of the test derivatives.

| Compound | LD50 at 24 h (in vivo) | Percent anti-inflammatory activity after 1 hour [1] | Percent anti-inflammatory activity after 2 hours [1] | Percent anti-inflammatory activity after 5 hours [1] | Percent decrease (of the edema reaction) After 2 hours [2] | Percent decrease (of the edema reaction) After 3 hours [2] | inhibition at 100 mg/kg (blood plate aggregation) |
| --- | --- | --- | --- | --- | --- | --- | --- |
| O=[N+]([O-])c1ccc(CN2Cc3ccsc3C(O)C2)cc1 (centres unmarked) [Derivative 1, 7-Hydroxy-5-p.nitrobenzyl-4,5,6,7-tetrahydro-thieno[3,2-c]-pyridine] | 90 mg/kg | – | – | – | – | – | – |
| O=C(CN1CCCC1)N1Cc2sccc2C(O)C1 (centres unmarked) [Derivative 2, 4-Hydroxy-6-pyrrolidinoacetyl-4,5,6,7-tetrahydro-thieno[2,3-c]-pyridine] | 225 mg/kg | 35% | 48% | 55% | 38% | 44% | – |
| Cc1ccc(S(=O)(=O)N2Cc3sccc3C(O)C2)cc1 (centres unmarked) [Derivative 4, 4-Hydroxy-6-p.toluenesulfonyl-4,5,6,7-tetrahydro-thieno[2,3-c]-pyridine] | – | – | – | – | – | – | 92% |
| O=C(Nc1ccccc1)N1Cc2sccc2C(O)C1 (centres unmarked) [Derivative 5, 4-Hydroxy-6-N-phenylcarbamoyl-4,5,6,7-tetrahydro-thieno[2,3-c]-pyridine] | – | 41% | 50% | 55% | 33% | 43% | 89% |
| CC(=O)CCN1Cc2ccsc2C(O)C1 (centres unmarked) [Derivative 7, 7-Hydroxy-5-(3-oxo-butyl)-4,5,6,7-tetrahydro-thieno[3,2-c]-pyridine] | 260 mg/kg | 42% | 56% | 60% | 41% | 52% | – |
| CC(=O)OC1CN(Cc2ccccc2Cl)Cc2ccsc21 (centres unmarked) [Derivative 8, 7-Acetoxy-5-o-chlorobenzyl-4,5,6,7-tetrahydro-thieno[3,2-c]-pyridine] | 200 mg/kg | – | – | – | – | – | – |
| CCCNC(=O)OC1CN(C)Cc2sccc21 (centres unmarked) [Derivative 9, 6-Methyl-4-N-propylcarbamoyloxy-4,5,6,7-tetrahydro-thieno-[2,3-c]-pyridine] | 220 mg/kg | – | – | – | – | – | 86% |
| CN1Cc2sccc2C(O)C1 (centres unmarked) [Derivative 10] | 340 mg/kg | – | – | – | – | – | – |
| CC1c2sccc2C(O)CN1C (centres unmarked) [Derivative 11] | 220 mg/kg | – | – | – | – | – | – |
| CC(=O)OC1CN(C)Cc2sccc21 (centres unmarked) [Derivative 12] | 260 mg/kg | 37% | 50% | 58% | 46% | 59% | – |
| CNC(=O)OC1CN(C)Cc2sccc21 (centres unmarked) [Derivative 14] | 280 mg/kg | – | – | – | – | – | – |
| CC(=O)CCN1Cc2sccc2C(O)C1 (centres unmarked) [Derivative 16] | 250 mg/kg | – | – | – | – | – | – |
| CC(=O)OC1CN(Cc2ccccc2Cl)Cc2sccc21 (centres unmarked) [Derivative 18] | – | 34% | 44% | 57% | 42% | 58% | 74% |
| OC1CN(Cc2ccc(Cl)cc2)Cc2sccc21 (centres unmarked) [Derivative 20] | 110 mg/kg | – | – | – | – | – | – |
| COc1ccc(CN2Cc3sccc3C(OC(C)=O)C2)cc1 (centres unmarked) [Derivative 21] | 245 mg/kg | – | – | – | – | – | – |
| O=[N+]([O-])c1ccccc1CN1Cc2sccc2C(O)C1 (centres unmarked) [Derivative 22] | – | – | – | – | – | – | 93% |
| O=[N+]([O-])c1ccc(CN2Cc3sccc3C(O)C2)cc1 (centres unmarked) [Derivative 24] | 150 mg/kg | – | – | – | – | – | – |
| CC(=O)OC1CN(C(=O)C(Cl)Cl)Cc2sccc21 (centres unmarked) [Derivative 25] | – | – | – | – | – | – | 84% |
| COc1cc(C(=O)N2Cc3sccc3C(O)C2)cc(OC)c1OC (centres unmarked) [Derivative 26] | – | 36% | 49% | 54% | 51% | 63% | – |
| CN1Cc2ccsc2C(O)C1 (centres unmarked) [Derivative 29] | 350 mg/kg | 45% | 55% | 61% | 49% | 59% | 88% |

From patent publication US4076819A, “Thieno-pyridine derivatives and therapeutic composition containing same” (priority 1975, dated 1978)
